The numbers were not newly measured in patent US20230210738A1, “Low-Skin Irritating Deodorant Composition And A Method For Preparing Thereof” (Sislan (Zhuhai) Pharmaceutical Technology Co. Ltd., priority 2021, published 2023), which cites them from elsewhere.

For series [1], the system named is bacteria. Conditions: hexamine prepared in basic condition.
The conditions of series [2]: hexamine as weak base.

Turning to `C1N2CN3CN1CN(C2)C3` [hexamine, hexamethylenetetramine], the antibacterial effect result in series [1] is on record as “capable of demonstrating an antibacterial effect”. In addition, the “neutralization of odoriferous, volatile organic acids” value in series [2] is recorded as “able to neutralize a number of odoriferous, volatile organic acids”.
